Results taken from US9309242B2, “Substituted pyrido[2,3-b]pyrazines as FGFR kinase inhibitors” (priority 2011, dated 2016).

Legend:
[1] = system: Ba/F3-FGFR3-transfected cells; assay: Ba/F3-FGFR3 (plus IL3) cellular proliferation assay, counterscreen with 10 ng/ml murine IL3; assay type: cell-based; conditions: plus IL3 (10 ng/ml murine IL3, counterscreen); read-out: BAF3-FGFR3 (PLUS IL3) pIC50 (converted)
Procedure, shortened: (§1)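 Ba/F3 cells transfected with FGFR3 were seeded at 20000 cells/well in phenol red-free RPMI-1640 with 10% FBS over compound in DMSO and kept 24 hours at 37° C, 5% CO2. Alamar Blue (resazurin) was then added for 4 hours and fluorescence read at ex 540/em 590 nm. The counterscreen repeated this with 10 ng/ml murine IL3.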

KDR (h) = KDR (h) (Homo sapiens, UniProt P35968); assay: KDR (VEGFR2) (enzymatic assay), TR-FRET; assay type: biochemical; conditions: read-out: VEGFR 2 (KDR) pIC50 (converted)
Sequence of KDR (h) (P35968 20-1356): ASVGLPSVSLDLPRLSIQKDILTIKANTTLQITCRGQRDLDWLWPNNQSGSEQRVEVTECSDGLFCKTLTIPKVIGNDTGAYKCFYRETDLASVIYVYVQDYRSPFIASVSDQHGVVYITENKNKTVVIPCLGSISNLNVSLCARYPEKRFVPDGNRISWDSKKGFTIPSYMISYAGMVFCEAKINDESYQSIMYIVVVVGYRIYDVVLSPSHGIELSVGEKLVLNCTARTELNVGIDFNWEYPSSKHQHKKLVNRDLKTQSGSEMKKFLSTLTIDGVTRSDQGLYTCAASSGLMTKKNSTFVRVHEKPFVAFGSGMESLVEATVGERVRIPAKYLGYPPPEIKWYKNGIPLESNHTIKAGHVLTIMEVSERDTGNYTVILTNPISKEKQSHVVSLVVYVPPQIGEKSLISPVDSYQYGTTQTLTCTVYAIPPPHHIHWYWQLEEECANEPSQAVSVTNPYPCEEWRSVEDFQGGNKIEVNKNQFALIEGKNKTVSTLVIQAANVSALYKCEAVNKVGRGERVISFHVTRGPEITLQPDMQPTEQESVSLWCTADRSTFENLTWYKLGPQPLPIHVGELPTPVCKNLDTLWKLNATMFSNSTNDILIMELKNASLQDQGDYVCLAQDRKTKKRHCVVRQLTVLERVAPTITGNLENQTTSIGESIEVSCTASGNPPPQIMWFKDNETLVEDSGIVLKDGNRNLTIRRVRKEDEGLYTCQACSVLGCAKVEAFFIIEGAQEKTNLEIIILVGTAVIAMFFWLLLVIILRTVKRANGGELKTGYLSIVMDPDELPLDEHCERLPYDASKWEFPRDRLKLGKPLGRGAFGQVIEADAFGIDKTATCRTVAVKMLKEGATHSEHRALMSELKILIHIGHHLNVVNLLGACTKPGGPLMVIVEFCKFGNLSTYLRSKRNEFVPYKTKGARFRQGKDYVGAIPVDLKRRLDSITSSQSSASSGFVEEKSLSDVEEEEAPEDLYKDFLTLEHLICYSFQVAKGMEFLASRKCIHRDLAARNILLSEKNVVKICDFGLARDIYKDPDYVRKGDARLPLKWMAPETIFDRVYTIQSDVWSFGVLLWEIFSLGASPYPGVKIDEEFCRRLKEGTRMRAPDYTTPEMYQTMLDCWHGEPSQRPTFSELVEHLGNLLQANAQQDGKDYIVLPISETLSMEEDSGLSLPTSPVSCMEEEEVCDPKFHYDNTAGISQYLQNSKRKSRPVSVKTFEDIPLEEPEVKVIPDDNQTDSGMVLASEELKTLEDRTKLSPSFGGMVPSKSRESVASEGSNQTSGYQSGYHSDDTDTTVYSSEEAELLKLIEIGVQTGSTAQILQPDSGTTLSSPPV
Procedure, shortened: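 Enzyme at 150 ng/ml was incubated 120 min at room temperature with 500 nM Btn-Flt3 peptide and 3 μM ATP in 50 mM HEPES pH 7.5, 6 mM MnCl2, 1 mM DTT, 0.1 mM Na3VO4, 0.01% Triton-X-100, 1% DMSO final. EDTA stop with Eu-anti-P-Tyr/SA-XL-665, 60 min; TR-FRET read in RFU.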

FGFR3 (h) = FGFR3 (h) (Homo sapiens, UniProt P22607); assay: FGFR3 (enzymatic assay), TR-FRET; assay type: biochemical; conditions: read-out: FGFR 3 pIC50 (converted)
Sequence of FGFR3 (h) (P22607 23-806): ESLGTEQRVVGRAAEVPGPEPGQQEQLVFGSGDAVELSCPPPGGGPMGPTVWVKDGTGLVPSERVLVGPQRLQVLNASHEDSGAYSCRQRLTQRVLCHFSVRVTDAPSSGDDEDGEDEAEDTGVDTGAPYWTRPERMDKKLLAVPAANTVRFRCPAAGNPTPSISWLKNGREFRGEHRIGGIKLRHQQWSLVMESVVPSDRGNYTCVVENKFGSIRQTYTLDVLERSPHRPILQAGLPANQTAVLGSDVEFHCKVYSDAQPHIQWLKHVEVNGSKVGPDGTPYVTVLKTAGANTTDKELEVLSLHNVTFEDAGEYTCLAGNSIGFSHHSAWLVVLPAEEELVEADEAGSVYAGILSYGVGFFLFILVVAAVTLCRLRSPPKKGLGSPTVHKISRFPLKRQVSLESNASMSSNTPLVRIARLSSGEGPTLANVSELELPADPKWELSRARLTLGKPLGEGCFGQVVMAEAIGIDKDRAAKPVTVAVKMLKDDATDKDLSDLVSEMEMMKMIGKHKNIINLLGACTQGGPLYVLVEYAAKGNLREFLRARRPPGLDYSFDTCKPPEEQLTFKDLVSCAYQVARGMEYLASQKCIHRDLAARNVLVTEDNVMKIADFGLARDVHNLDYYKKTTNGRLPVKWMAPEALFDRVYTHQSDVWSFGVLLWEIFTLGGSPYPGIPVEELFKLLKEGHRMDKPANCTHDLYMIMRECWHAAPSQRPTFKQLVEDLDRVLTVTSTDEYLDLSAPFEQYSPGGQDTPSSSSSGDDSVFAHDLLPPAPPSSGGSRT
Text: Time-Resolved Fluorescence Resonance Energy Transfer (TR-FRET) signal (ex340 nm.

[2] = biological target: T1, Ba/F3-FGFR3-transfected cells (Homo sapiens, UniProt P22607); assay: Ba/F3-FGFR3 (minus IL3) cellular proliferation assay, Alamar Blue; assay type: cell-based
T1 construct: BAF3-FGFR3 (MIN IL3) pIC50; other: minus IL3
T1 sequence (P22607 whole entry, change not shown): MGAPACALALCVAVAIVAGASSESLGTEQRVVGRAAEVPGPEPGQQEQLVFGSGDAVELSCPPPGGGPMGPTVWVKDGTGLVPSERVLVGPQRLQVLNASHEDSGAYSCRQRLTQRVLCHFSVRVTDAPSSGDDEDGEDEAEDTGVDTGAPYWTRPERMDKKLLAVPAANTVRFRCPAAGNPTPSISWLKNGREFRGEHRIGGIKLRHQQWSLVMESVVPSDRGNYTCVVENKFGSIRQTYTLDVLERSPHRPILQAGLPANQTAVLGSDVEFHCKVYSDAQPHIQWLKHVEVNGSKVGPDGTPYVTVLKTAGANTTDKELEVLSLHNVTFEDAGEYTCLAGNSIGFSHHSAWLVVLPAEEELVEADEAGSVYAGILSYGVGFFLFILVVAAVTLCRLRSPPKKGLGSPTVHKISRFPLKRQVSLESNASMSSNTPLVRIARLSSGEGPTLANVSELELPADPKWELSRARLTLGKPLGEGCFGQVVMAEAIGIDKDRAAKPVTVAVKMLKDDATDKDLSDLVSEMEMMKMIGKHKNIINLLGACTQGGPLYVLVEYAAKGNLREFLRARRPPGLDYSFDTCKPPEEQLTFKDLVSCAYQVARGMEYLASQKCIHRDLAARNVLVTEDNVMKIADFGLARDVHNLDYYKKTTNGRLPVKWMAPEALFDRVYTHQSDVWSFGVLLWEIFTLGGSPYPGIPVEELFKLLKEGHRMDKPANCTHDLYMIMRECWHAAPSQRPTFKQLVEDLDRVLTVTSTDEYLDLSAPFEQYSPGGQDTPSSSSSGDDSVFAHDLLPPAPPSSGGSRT
Procedure, shortened: as §1

[3] = system: Ba/F3-KDR-transfected cells; assay: Ba/F3-KDR (plus IL3) cellular proliferation assay, counterscreen with 10 ng/ml murine IL3; assay type: cell-based; conditions: plus IL3 (10 ng/ml murine IL3, counterscreen); read-out: BAF3-KDR (PLUS IL3) pIC50 (converted)
Procedure, shortened: (§2)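 Ba/F3-KDR cells (20000 per well) in phenol red-free RPMI-1640 with 10% FBS were exposed to compound for 24 hours at 37° C, 5% CO2. Alamar Blue (resazurin) was then added for 4 hours, and fluorescence was read at ex. 540 nm/em. 590 nm.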

[4] = biological target: T2, Ba/F3-KDR-transfected cells (Homo sapiens, UniProt P35968); assay: Ba/F3-KDR (minus IL3) cellular proliferation assay, Alamar Blue; assay type: cell-based
T2 construct: BAF3-KDR (MIN IL3) pIC50; other: minus IL3
T2 sequence (P35968 whole entry, change not shown): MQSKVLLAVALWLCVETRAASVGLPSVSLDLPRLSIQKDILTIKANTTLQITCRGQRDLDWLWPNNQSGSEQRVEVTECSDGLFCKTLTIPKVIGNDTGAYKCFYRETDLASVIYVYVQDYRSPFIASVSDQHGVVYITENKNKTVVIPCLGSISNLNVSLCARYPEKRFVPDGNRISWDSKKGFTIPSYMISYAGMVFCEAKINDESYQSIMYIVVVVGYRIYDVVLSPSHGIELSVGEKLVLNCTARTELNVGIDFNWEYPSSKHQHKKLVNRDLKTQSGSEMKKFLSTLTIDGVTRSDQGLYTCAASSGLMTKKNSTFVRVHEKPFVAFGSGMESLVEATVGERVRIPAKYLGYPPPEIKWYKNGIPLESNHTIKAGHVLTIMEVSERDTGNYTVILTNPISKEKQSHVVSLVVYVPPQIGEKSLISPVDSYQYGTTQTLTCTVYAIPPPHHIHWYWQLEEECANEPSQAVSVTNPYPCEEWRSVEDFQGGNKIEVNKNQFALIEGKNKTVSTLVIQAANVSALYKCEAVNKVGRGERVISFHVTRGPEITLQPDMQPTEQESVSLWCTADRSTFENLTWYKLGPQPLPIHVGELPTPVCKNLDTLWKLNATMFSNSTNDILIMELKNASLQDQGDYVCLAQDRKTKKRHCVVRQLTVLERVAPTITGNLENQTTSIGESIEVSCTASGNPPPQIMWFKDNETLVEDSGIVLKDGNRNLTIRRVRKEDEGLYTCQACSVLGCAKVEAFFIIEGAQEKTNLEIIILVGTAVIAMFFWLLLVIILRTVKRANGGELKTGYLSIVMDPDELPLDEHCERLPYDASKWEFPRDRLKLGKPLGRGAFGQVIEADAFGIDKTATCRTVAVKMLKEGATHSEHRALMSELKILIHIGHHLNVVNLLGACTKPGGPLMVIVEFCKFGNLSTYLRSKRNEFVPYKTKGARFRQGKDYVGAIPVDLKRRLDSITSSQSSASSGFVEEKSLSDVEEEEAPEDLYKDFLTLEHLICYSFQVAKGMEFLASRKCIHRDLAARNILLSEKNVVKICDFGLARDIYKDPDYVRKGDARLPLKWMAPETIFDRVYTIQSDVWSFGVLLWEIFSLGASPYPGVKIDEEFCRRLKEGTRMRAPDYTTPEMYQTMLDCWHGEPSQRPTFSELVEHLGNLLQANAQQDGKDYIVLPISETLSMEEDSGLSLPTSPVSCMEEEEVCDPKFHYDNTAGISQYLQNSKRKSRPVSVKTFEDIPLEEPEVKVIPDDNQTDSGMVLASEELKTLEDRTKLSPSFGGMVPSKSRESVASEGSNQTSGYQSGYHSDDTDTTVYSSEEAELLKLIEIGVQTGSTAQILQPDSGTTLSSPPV
Procedure, shortened: as §2

[5] = system: Ba/F3-FGFR1-transfected cells; assay: Ba/F3-FGFR1 (plus IL3) cellular proliferation assay, counterscreen with 10 ng/ml murine IL3; assay type: cell-based; conditions: plus IL3 (10 ng/ml murine IL3, counterscreen); read-out: BAF3-FGFR1 (PLUS IL3) pIC50 (converted)
Procedure, shortened: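 Ba/F3-FGFR1 cells (20000/well) in RPMI-1640 with 10% FBS exposed to compound for 24 h at 37° C., 5% CO2, then Alamar Blue (resazurin) added for 4 h; fluorescence read at ex 540/em 590 nm. Counterscreen run identically with 10 ng/ml murine IL3.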

[6] = biological target: T3, Ba/F3-FGFR1-transfected cells (Homo sapiens, UniProt P11362); assay: Ba/F3-FGFR1 (minus IL3) cellular proliferation assay, Alamar Blue; assay type: cell-based
T3 construct: BAF3-FGFR1 (MIN IL3) pIC50; other: minus IL3
T3 sequence (P11362 whole entry, change not shown): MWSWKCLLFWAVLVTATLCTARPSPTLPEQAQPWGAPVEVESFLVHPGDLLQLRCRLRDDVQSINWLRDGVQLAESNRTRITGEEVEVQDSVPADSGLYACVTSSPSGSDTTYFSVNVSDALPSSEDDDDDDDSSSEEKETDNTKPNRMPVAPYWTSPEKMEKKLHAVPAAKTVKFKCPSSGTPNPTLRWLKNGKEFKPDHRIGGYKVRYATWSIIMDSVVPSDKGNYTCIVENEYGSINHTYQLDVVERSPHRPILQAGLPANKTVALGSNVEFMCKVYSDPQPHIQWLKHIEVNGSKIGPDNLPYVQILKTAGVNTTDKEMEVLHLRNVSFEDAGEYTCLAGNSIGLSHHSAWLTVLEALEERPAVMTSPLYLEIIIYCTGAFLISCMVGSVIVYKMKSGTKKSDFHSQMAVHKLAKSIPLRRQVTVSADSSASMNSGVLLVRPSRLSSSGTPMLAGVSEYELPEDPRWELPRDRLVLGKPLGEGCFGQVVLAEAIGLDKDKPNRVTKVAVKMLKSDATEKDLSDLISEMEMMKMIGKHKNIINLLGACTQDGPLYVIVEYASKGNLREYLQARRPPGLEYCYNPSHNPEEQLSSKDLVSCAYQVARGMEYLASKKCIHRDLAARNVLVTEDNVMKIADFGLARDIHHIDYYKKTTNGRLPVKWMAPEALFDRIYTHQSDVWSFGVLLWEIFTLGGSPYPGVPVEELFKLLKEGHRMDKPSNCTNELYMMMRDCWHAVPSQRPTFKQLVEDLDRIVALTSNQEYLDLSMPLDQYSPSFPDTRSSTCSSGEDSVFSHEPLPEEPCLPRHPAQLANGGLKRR
Procedure, shortened: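 Ba/F3 cells transfected with FGFR1 (20000 cells/well) were plated onto compound in phenol red-free RPMI-1640 with 10% FBS, 2 mM L-glutamine and gentamycin, then kept 24 h at 37 °C, 5% CO2. Alamar Blue (resazurin) was added for 4 h and fluorescence read at ex 540/em 590 nm.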

Compound | IC50 [1] [µM] | IC50 (KDR (h)) [µM] | IC50 (FGFR3 (h)) [µM] | BAF3-FGFR3 (MIN IL3) pIC50 [2] | IC50 [3] [µM] | BAF3-KDR (MIN IL3) pIC50 [4] | IC50 [5] [µM] | BAF3-FGFR1 (MIN IL3) pIC50 [6]
COc1cc(/N=c2\ccc3ncc(-c4cnn(C)c4)nc3n2CC2CCOC2)c(F)c(OC)c1 (single isomer, unassigned) [Compound 169] | > 10 | 0.00427 | 0.00102 | 7.44 | > 10 | 6.40 | > 10 | 7.68
COc1cc(OC)cc(N(Cc2ncc[nH]2)c2ccc3ncc(-c4cn[nH]c4)nc3n2)c1 [Compound 141] | > 10 | 0.012 | 0.000457 | ~8.13 | > 10 | 5.87 | > 10 | 8.27
COc1cc(OC)cc(N(Cc2nnco2)c2ccc3ncc(-c4cnn(C)c4)nc3n2)c1 [Compound 217] | > 10 | 0.162 | 0.00389 | ~6.68 | > 10 | 5.18 | > 10 | 6.59
COc1cc(OC)c(F)c(/N=c2\ccc3ncc(-c4cnn(C)c4)nc3n2CCN(C2COC2)C2COC2)c1F [Compound 164] | > 10 | 0.00339 | 0.000933 | 7.89 | > 10 | 6.86 | > 10 | 8.01
COc1cc(OC)cc(N(Cc2ncc[nH]2)c2ccc3ncc(-c4cccnc4)nc3n2)c1 [Compound 182] | > 10 | 0.0646 | 0.00115 | ~7.76 | > 10 | 5.48 | > 10 | 7.60
COc1cc(OC)c(F)c(N(Cc2cc(C)on2)c2ccc3ncc(-c4cnn(C)c4)nc3n2)c1 [Compound 180] | > 10 | 0.00955 | 0.00107 | 7.36 | > 10 | 5.58 | > 10 | 7.43
COc1cc(/N=c2\ccc3ncc(-c4cnn(C)c4)nc3n2Cc2cn[nH]c2)c(F)c(OC)c1 [Compound 155] | > 10 | 0.00245 | 0.000407 | 8.07 | > 10 | 6.88 | > 10 | 8.13
COc1cc(OC)c(F)c(N(CC(=O)NCCO)c2ccc3ncc(-c4cnn(C)c4)nc3n2)c1 [Compound 230] | > 10 | 0.363 | 0.00794 | 6.18 | > 10 | 5.04 | > 10 | 6.09
COc1cc(/N=c2\ccc3ncc(-c4cnn(C)c4)nc3n2Cc2cc(C)no2)c(F)c(OC)c1 [Compound 184] | > 10 | 0.00479 | 0.00135 | ~8.15 | > 10 | 6.71 | > 10 | ~8.34
COc1cc(OC)c(F)c(N(Cc2n[nH]c(=O)o2)c2ccc3ncc(-c4cnn(C)c4)nc3n2)c1 [Compound 284] | > 10 | 0.0631 | 0.00105 | 6.42 | > 10 | <5 | > 10 | 6.37
COc1cc(OC)c(F)c(N(Cc2ncc[nH]2)c2ccc3ncc(-c4ccncc4)nc3n2)c1 [Compound 211] | > 10 | 0.0363 | 0.00151 | ~8.11 | > 10 | 5.82 | > 10 | 8.08
COc1cc(OC)c(F)c(N(CC#N)c2ccc3ncc(-c4cnn(C)c4)nc3n2)c1F [Compound 173] | > 10 | 0.00891 | 0.000437 | ~8.04 | > 10 | 5.78 | > 10 | 8.00
COc1cc(OC)c(F)c(N(CCNC2COC2)c2ccc3ncc(-c4cnn(C)c4)nc3n2)c1F (single isomer, unassigned) [Compound 162] | > 10 | 0.00891 | 0.00141 | 7.95 | > 10 | 6.61 | > 10 | 7.88
COc1cc(/N=c2\ccc3ncc(-c4cnn(C)c4)nc3n2Cc2cnn(C)c2)c(F)c(OC)c1 [Compound 196] | > 10 | 0.00398 | 0.000912 | ~8.66 | > 10 | 7.41 | > 10 | 8.95
COc1ccc(Cl)c(N(CC2CCC(=O)N2)c2ccc3ncc(-c4cnn(C)c4)nc3n2)c1Cl (single isomer, unassigned) [Compound 90] | > 10 | > 1 | 0.126 | 5.19 | > 10 | <5 | > 10 | 5.04
COc1cc(OC)c(F)c(N(Cc2ncco2)c2ccc3ncc(-c4cnn(C)c4)nc3n2)c1 [Compound 177] | > 10 | 0.0105 | 0.00107 | 7.10 | > 10 | 5.67 | > 10 | 7.22
COc1cc(OC)c(F)c(N(Cc2nccn2CCO)c2ccc3ncc(-c4cnn(C)c4)nc3n2)c1 [Compound 145] | > 10 | 0.0257 | 0.00468 | 7.04 | > 10 | 5.63 | > 10 | 7.26
COc1cc(/N=c2\ccc3ncc(-c4cnn(C)c4)nc3n2CCN2CCOCC2)cc(OC)c1 [Compound 147] | > 10 | 0.00562 | 0.00162 | 7.23 | > 10 | 6.17 | > 10 | 7.28
COc1cc(OC)c(F)c(N(Cc2ncc[nH]2)c2ccc3ncc(-c4ccccc4)nc3n2)c1 [Compound 200] | > 10 | ~0.00955 | 0.00145 | ~8.13 | > 10 | 5.99 | > 10 | 8.37
COc1cc(OC)c(F)c(N(CCNC2COC2)c2ccc3ncc(-c4cnn(C)c4)nc3n2)c1 [Compound 221] | > 10 | ~0.0295 | 0.000891 | ~7.67 | > 10 | 6.11 | > 10 | 7.53
COc1ccc(Cl)c(N(CC2CCC(=O)N2)c2ccc3ncc(-c4cnn(C)c4)nc3n2)c1Cl (centres unmarked) [Compound 93] | > 10 | > 1 | 0.0776 | ~5.59 | > 10 | <5 | > 10 | 5.59
COc1cc(OC)c(F)c(N(CCO)c2ccc3ncc(-c4cnn(CCO)c4)nc3n2)c1 [Compound 233] | > 10 | 0.0257 | 0.000776 | 7.40 | > 10 | 5.90 | > 10 | 7.49
